Data on 17 compounds can be found in ChEMBL document CHEMBL5236653, “Dual functional antioxidant and butyrylcholinesterase inhibitors for the treatment of Alzheimer's disease: Design, synthesis and evaluation of novel melatonin-alkylbenzylamine hybrids” (Bioorg Med Chem, 2023).

One data set in a line: in vitro. The note with it: PAMPA.
The target in data set [1] is Acetylcholinesterase (Electrophorus electricus, UniProt O42275). Put plainly: Inhibition of electric eel AChE using ATCI and BTCI as substrate preincubated for 5 mins followed by substrate addition and measured after 3 mins by DTNB-reagent based Ellman's method.
The nature of data set [2]: Antioxidant activity assessed as trolox equivalent of ORAC radical scavenging activity by ORAC assay. Format: functional.
For data set [3], the target named is Cholinesterase (Homo sapiens, UniProt P06276). Put plainly: Inhibition of human serum BuChE using ATCI and BTCI as substrate preincubated for 5 mins followed by substrate addition and measured after 3 mins by DTNB-reagent based Ellman's method. Type of data set: cell-free.
Data set [4] deals with Acetylcholinesterase (Homo sapiens, UniProt P22303). Put plainly: Inhibition of human erythrocyte AChE using ATCI and BTCI as substrate preincubated for 5 mins followed by substrate addition and measured after 3 mins by DTNB-reagent based Ellman's method.
A short description of data set [5]: Selectivity index, ratio of IC50 for inhibition of human erythrocyte AChE to IC50 for inhibition of human serum BuChE.
The target in data set [6] is Cholinesterase (Equus caballus, UniProt P81908). In words: Inhibition of equine serum BuChE using ATCI and BTCI as substrate preincubated for 5 mins followed by substrate addition and measured after 3 mins by DTNB-reagent based Ellman's method. Type of data set: cell-free.
Sequence of Cholinesterase (Equus caballus, UniProt P81908) (P81908 whole entry): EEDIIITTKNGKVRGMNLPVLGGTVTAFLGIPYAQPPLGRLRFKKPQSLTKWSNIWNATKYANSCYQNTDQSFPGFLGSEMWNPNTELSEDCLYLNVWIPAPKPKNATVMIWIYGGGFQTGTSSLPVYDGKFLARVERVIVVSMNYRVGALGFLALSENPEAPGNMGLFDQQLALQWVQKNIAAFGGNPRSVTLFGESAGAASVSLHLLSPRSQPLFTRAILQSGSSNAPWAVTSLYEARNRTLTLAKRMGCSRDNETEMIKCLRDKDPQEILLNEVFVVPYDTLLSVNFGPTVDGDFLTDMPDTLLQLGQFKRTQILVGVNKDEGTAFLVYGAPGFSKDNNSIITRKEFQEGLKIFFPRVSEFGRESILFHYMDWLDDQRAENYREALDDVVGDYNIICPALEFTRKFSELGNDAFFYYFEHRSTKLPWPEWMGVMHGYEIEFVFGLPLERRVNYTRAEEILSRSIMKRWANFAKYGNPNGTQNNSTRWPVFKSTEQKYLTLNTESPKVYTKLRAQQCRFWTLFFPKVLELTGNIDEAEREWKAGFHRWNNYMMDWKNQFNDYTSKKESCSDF

Sequence of Cholinesterase (Homo sapiens, UniProt P06276) (P06276 whole entry): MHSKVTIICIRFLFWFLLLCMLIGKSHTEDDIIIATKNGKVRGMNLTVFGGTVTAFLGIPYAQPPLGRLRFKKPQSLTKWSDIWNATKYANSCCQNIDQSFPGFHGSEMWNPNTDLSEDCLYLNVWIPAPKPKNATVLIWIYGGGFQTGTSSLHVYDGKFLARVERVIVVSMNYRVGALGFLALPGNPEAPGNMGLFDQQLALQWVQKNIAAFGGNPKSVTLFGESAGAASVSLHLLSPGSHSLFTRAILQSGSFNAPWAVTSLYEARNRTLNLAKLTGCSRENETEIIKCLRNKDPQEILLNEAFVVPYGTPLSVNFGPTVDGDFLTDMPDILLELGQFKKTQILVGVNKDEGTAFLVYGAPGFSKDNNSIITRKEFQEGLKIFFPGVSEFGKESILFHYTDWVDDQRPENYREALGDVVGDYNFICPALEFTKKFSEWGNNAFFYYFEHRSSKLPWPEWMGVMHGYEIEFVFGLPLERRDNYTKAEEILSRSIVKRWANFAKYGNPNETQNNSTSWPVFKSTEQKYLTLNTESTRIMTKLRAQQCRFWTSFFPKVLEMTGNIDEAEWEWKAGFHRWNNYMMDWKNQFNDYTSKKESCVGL
Sequence of Acetylcholinesterase (Electrophorus electricus, UniProt O42275) (O42275 whole entry): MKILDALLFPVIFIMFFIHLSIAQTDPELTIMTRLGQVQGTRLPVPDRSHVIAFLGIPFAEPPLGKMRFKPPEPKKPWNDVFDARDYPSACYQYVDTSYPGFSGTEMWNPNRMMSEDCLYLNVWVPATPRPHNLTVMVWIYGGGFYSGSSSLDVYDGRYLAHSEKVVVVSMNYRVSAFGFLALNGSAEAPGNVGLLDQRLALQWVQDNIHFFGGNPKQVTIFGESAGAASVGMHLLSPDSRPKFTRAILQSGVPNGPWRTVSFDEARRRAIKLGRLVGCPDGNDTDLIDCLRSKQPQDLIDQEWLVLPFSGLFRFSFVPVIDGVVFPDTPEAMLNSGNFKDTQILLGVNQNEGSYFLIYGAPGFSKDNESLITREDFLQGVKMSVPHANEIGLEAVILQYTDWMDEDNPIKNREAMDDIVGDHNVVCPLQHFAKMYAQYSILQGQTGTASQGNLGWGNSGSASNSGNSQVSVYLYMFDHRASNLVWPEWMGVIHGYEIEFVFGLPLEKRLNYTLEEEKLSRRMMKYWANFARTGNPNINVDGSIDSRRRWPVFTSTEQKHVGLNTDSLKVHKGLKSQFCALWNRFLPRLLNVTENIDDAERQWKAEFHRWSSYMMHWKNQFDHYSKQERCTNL
Sequence of Acetylcholinesterase (Homo sapiens, UniProt P22303) (P22303 whole entry): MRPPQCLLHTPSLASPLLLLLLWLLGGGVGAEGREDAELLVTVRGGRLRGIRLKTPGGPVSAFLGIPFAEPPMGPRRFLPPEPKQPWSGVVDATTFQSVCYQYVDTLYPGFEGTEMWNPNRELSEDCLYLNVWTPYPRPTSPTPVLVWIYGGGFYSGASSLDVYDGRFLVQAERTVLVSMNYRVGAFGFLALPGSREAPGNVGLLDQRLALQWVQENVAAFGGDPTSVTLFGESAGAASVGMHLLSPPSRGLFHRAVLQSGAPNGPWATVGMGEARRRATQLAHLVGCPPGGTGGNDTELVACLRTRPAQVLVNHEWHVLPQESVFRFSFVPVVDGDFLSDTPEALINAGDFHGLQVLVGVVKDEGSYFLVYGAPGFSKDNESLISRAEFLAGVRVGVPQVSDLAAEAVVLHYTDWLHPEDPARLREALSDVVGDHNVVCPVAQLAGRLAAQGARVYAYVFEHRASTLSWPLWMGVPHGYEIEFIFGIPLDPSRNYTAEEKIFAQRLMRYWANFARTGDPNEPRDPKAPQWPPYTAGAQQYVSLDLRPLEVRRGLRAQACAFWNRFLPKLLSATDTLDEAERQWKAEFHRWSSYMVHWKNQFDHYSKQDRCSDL
Description for in vitro: Permeability coefficient of the compound across blood brain barrier incubated for 18 hrs by PAMPA assay

For the compound `COc1ccc2c(c1)c(C=O)cn2CCCCCCCCCCN(C)Cc1cccc(O)c1`, the Papp at 18 h in “in vitro” amounted to 5.76 ×10⁻⁶ cm/s. Moreover, the IC50 worked out at 3.1 µM against Acetylcholinesterase [1], 0.19 µM at Cholinesterase [3], 4.52 µM on Acetylcholinesterase [4] and 0.61 µM on Cholinesterase [6]. Further, in data set [2], the Activity is less than 0.01 equiv. Besides, in data set [5], the Ratio IC50 is 23.8.
The compound `COc1ccc2c(c1)c(C=O)cn2CCCCCCCN(C)Cc1ccc(O)cc1` displayed a Papp at 18 h in “in vitro” of 4.19 ×10⁻⁶ cm/s. Besides, the IC50 turned out to be 1.43 µM against Acetylcholinesterase [1], 0.89 µM against Cholinesterase [3], 1.61 µM against Acetylcholinesterase [4] and 2.1 µM against Cholinesterase [6]. The Activity in data set [2] is 1.55 equiv. For the same compound, in data set [5], the Ratio IC50 was determined as 1.81.
Regarding `COc1ccc2c(c1)c(C=O)cn2CCCCCCN(C)Cc1ccc(O)cc1`, the IC50 against Acetylcholinesterase [1] was 0.54 µM; against Cholinesterase [6], 7.2 µM. Also, the Activity in data set [2] is 0.61 equiv.
On to `COc1ccc2c(c1)c(C=O)cn2CCCCN(C)Cc1ccc(O)cc1`, for which the IC50 at Acetylcholinesterase [1] amounted to 65.2 µM; at Cholinesterase [6] it was 20.1 µM. In data set [2], the Activity is 0.91 equiv.
Consider `COc1ccc2c(c1)c(C=O)cn2CCCCCCCCCCCCN(C)Cc1cccc(O)c1`, for which the Papp at 18 h in the data set “in vitro” was determined as 4.71 ×10⁻⁶ cm/s. The IC50 at Acetylcholinesterase [1] amounted to 27.6 µM; on Cholinesterase [3], 0.15 µM; at Acetylcholinesterase [4], 76.5 µM; against Cholinesterase [6], 0.31 µM. Also, the Activity in data set [2] was less than 0.01 equiv. The Ratio IC50 in data set [5] is 510.
`C[C@]12CC[C@@H]3c4ccc(O)cc4CC[C@H]3[C@@H]1CC[C@@H]2O` [ESTRADIOL]: the Papp at 18 h in the data set “in vitro” was 14.1 ×10⁻⁶ cm/s.
With `COc1ccc2c(c1)c(C=O)cn2CCCCCCCN(C)Cc1cccc(O)c1`, the Papp at 18 h in the data set “in vitro” was found to be 4.78 ×10⁻⁶ cm/s. For the same compound, the IC50 was 1.39 µM at Acetylcholinesterase [1], 4.89 µM at Cholinesterase [3], 5.54 µM at Acetylcholinesterase [4] and 5.47 µM against Cholinesterase [6]. In data set [2], the Activity was less than 0.01 equiv. For the same compound, in data set [5], the Ratio IC50 stood at 1.13.
On to `COc1ccc2c(c1)c(C=O)cn2CCCCCCN(C)Cc1cccc(O)c1`, for which the IC50 was determined as 0.81 µM against Acetylcholinesterase [1] and 16.2 µM on Cholinesterase [6]. The Activity in data set [2] turned out to be 0.82 equiv.
Consider `COc1ccc2c(c1)c(C=O)cn2CCCCCCCCCN(C)Cc1cccc(O)c1`, for which the IC50 worked out at 3.36 µM on Acetylcholinesterase [1], 2.36 µM against Cholinesterase [3], 5.19 µM against Acetylcholinesterase [4] and 1.63 µM against Cholinesterase [6]. Further, the Activity in data set [2] was less than 0.01 equiv. Besides, the Ratio IC50 in data set [5] came to 2.2.
Take `CN(C)CCCN1c2ccccc2Sc2ccc(Cl)cc21` [CHLORPROMAZINE]: in the data set “in vitro”, the Papp at 18 h amounted to 5.93 ×10⁻⁶ cm/s.
In turn, `COc1ccc2c(c1)c(C=O)cn2CCCCCCCCN(C)Cc1cccc(O)c1` had a Papp at 18 h in “in vitro” of 6.05 ×10⁻⁶ cm/s. The half-inhibitory concentration (IC50) against Acetylcholinesterase [1] was determined as 3.39 µM; against Cholinesterase [3] it was 2.15 µM; at Acetylcholinesterase [4], 2.6 µM; on Cholinesterase [6], 5.26 µM. Moreover, the Activity in data set [2] worked out at 0.22 equiv. The Ratio IC50 in data set [5] worked out at 1.21.
`COc1ccc2c(c1)c(C=O)cn2CCCN(C)Cc1ccc(O)cc1` registered an apparent permeability (Papp) at 18 h in the data set “in vitro” of 5.69 ×10⁻⁶ cm/s. In addition, the IC50 against Acetylcholinesterase [1] is 67.6 µM; against Cholinesterase [6] it was 6.53 µM. In addition, the Activity in data set [2] turned out to be 1.12 equiv.
In the same order, the values of `COc1ccc2c(c1)c(C=O)cn2CCCCCCCCCCCCN(C)Cc1ccc(OC)c(OC)c1` are 5.27 ×10⁻⁶ cm/s, 51.8 µM, 0.88 µM and less than 0.01 equiv.
Consider `COc1ccc2c(c1)c(C=O)cn2CCCCCCCCCCCCCCN(C)Cc1cccc(O)c1`, for which the IC50 against Acetylcholinesterase [1] came to 31.6 µM; against Cholinesterase [6] it was 8.76 µM. Besides, the Activity in data set [2] was less than 0.01 equiv.
The corresponding values for `COc1ccc2c(c1)c(C=O)cn2CCCCCN(C)Cc1ccc(O)cc1` are 26.9 µM, 6.19 µM and 0.78 equiv.
The corresponding values for `COc1ccc2c(c1)c(C=O)cn2CCCCCN(C)Cc1cccc(O)c1` are 7.13 µM, 45.4 µM and 0.2 equiv.
Turning to `O=c1c(O)c(-c2ccc(O)c(O)c2)oc2cc(O)cc(O)c12`, the Activity in data set [2] was determined as 6.14 equiv.
